Article PMC6600512, “Interactions between β-Lactoglobulin and 3,3′-Diindolylmethane in Model System” (Molecules, 2019)

Biological target: T1, β-Lactoglobulin (β-LG) (Bos taurus, UniProt P02754)
T1 construct: gene LGB
T1 sequence (P02754 17-178): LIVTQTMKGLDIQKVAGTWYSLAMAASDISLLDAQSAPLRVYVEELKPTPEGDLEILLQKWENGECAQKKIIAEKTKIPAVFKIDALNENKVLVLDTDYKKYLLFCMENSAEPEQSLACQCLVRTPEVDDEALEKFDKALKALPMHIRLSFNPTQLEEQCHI
Assay: intrinsic fluorescence enhancement titration (binding constant from […]/ΔF vs […]/Cq); supported by CD, FT-IR, UV, DLS and zeta potential
Details: read-out: intrinsic fluorescence enhancement titration (binding constant from 1/ΔF vs 1/Cq) (converted)

Compound `c1ccc2c(Cc3c[nH]c4ccccc34)c[nH]c2c1` [DIM, 3,3′-diindolylmethane] has a Kd of 1490 nM.
